Reference: patent US8691982B2, “Pyrazolo[1,5-a]-1,3,5-triazine derivatives, preparation thereof, and therapeutic use thereof” (Centre National de la Recherche Scientifique, priority 2009, dated 2014)
Counter-ions that a name gives are not always drawn.

What was measured:
CDK1/cyclin B = CDK1/cyclin B kinase assay; format: biochemical, starfish (Marthasterias glacialis); conditions: 15 μM ATP, 30° C., histone H1 substrate
Experimental: Homogenization buffers: 60 mM β-glycerophosphate, 15 mM p-nitrophenyl phosphate, 25 mM Mops (pH 7.2), 15 mM EGTA, 15 mM MgCl2, 1 mM DTT, 1 mM sodium vanadate, 1 mM NaF, 1 mM phenyl phosphate, 10 μg leupeptin/ml, 10 μg aprotinin/ml, 10 μg soybean trypsin inhibitor/ml and 100 μM benzamidine.
(§1) Buffer C: 60 mM β-glycerophosphate, 15 mM p-nitrophenyl phosphate, 25 mM Mops (pH 7.2), 5 mM EGTA, 15 mM MgCl2, 1 mM DTT, 1 mM sodium vanadate, 1 mM phenyl phosphate, 10 μg leupeptin/ml, 10 μg aprotinin/ml and 100 μM benzamidine.
(§2) Controls were performed with appropriate dilutions of dimethyl sulfoxide.
(§3) ATP (3000 Ci/mmol; 10 mCi/ml) in a final volume of 30 μl. After incubation for 30 minutes at 30° C., aliquotes of 25 μl of the supernatant were spotted onto Whatman P81 phosphocellulose paper filters and, 20 seconds later, the filters were washed five times (for at least five minutes each time) in a solution of 10 ml of phosphoric acid/liter of water. The wet filters were subjected to counting in the presence of an ACS scintillation fluid from Amersham. CDK2/cyclin A (human, recombinant, expressed in insect cells) was assayed as described for CDK1/cyclin B. CDK5/p25 was reconstituted by mixing equal amounts of recombinant mammalian CDK5 and p25 expressed in E. coli as a GST (glutathione-S-transferase) fusion protein and purified by affinity chromatography on glutathione-agarose (p25 is a truncated version of p35, the 35 kDa CDK5 activator). […] DYRK1A (human, recombinant, expressed in E. coli as a GST fusion protein) was purified on glutathione-agarose, assayed as described for CDK1/cyclin B with myelin basic protein (1 mg/ml) as substrate.

CDK2/cyclin A = molecular target: T1, CDK2/cyclin A (Homo sapiens, UniProt P24941); test: CDK2/cyclin A kinase assay; format: biochemical; conditions: 15 μM ATP, 30° C., histone H1 substrate
T1 construct: host or cells: insect cells
Experimental: as §1, §2, §3

GSK-3α/β = GSK-3α/β kinase assay; format: biochemical, pig; conditions: 15 μM ATP, 30° C., buffer A, GS-1 substrate
CDK9/cyclin T = molecular target: T2, CDK9/cyclin T (Homo sapiens, UniProt P50750); test: CDK9/cyclin T kinase assay; format: biochemical; conditions: 15 μM ATP, 30° C., pRB fragment substrate
T2 construct: host or cells: insect cells

DYRK1A = DYRK1A (Homo sapiens, UniProt Q13627); test: DYRK1A kinase assay; format: biochemical; conditions: 15 μM ATP, 30° C., myelin basic protein substrate
Experimental: (§4) The blank values were subtracted and the activities calculated as μmoles of phosphate incorporated per 10 minutes of incubation. […] Controls were performed with appropriate dilutions of dimethyl sulfoxide.
as §3

CDK5/p25 = CDK5/p25 (Homo sapiens, UniProt Q00535); test: CDK5/p25 kinase assay; format: biochemical, mammalian; conditions: 15 μM ATP, 30° C., histone H1 substrate
Experimental: as §1, §2, §3

CK1δ/ε = CK1δ/ε kinase assay; format: biochemical, pig; conditions: 15 μM ATP, 30° C., CK1-specific peptide substrate
Experimental: as §4, §3

[1] = test system: SH-SY5Y human neuroblastoma cells; test: SH-SY5Y cell viability (MTS reduction); format: cell-based; conditions: SH-SY5Y cell line, cell viability by MTS
Experimental: A Cell Titer 96® kit containing the MTS reagent was purchased from Promega (Madison, Wis., USA). The protease inhibitor cocktail came from Roche and the fetal calf serum (FCS) came from Invitrogen. The reagents not listed came from Sigma, unless otherwise indicated.
The SH-SY5Y human neuroblastoma cell line was grown in a DMEM medium with L-glutamine from Invitrogen (Cergy Pontoise, France), antibiotics and 10% by volume of FCS from Invitrogen. The general culture conditions were a 5% CO2 atmosphere and a temperature of 37° C. The culture plates and other disposable plastic tools were supplied by Corning (Corning, N.Y., USA). The treatments with the compounds of the invention were carried out on cultures in exponential growth over time, and indicated concentrations. The control experiments were carried out also using suitable dilutions of DMSO.
The cell viability was determined by measuring the reduction of 3-(4,5-dimethylthiazol-2-yl)-5-(3-carboxymethoxyphenyl)-2-(4-sulfophenyl)-2H-tetrazolium (MTS).

[2] = test system: Human chronic lymphoid leukemia (B-CLL) lymphocytes; test: B-CLL cell apoptosis (annexin V / propidium iodide, flow cytometry); format: cell-based; conditions: Homo sapiens, B-CLL cells from patients
Experimental: The CLL cells were isolated from heparinized blood of untreated patients after informed consent.
The mononuclear cells were isolated by centrifugation on a Lymphosep density gradient (Biowest). […] When the percentage of CD19+/CD5+ cells was less than 90%, the B lymphocytes were enriched using the kit II for B-cell enrichment by immunomagnetic depletion of the monocytes, NK cells, granulocytes and T lymphocytes (Miltenyi Biotech).
After incubation, the B-CLL cells were harvested, washed in PBS and resuspended in 100 μl of 1× binding buffer containing FITC-conjugated annexin V and propidium iodide (Beckman Coulter Apoptosis Detection Kit). After incubation for 10 min on ice, the cells were analyzed by flow cytometry and the percentage of cells undergoing apoptosis was determined.

T2 sequence (P50750 whole entry, the tested form may be a part): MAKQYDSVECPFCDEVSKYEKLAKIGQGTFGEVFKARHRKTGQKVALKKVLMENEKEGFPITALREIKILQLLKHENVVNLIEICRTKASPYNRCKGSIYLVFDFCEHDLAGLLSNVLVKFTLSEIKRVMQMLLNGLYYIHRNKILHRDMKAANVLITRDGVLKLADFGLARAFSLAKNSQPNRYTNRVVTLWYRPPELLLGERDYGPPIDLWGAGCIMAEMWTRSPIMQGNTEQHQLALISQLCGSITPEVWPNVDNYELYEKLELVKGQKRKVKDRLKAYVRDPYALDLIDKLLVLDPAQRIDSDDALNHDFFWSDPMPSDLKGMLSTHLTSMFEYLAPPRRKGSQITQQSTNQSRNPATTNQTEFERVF
T2 sequence (O60563 whole entry partner, the tested form may be a part): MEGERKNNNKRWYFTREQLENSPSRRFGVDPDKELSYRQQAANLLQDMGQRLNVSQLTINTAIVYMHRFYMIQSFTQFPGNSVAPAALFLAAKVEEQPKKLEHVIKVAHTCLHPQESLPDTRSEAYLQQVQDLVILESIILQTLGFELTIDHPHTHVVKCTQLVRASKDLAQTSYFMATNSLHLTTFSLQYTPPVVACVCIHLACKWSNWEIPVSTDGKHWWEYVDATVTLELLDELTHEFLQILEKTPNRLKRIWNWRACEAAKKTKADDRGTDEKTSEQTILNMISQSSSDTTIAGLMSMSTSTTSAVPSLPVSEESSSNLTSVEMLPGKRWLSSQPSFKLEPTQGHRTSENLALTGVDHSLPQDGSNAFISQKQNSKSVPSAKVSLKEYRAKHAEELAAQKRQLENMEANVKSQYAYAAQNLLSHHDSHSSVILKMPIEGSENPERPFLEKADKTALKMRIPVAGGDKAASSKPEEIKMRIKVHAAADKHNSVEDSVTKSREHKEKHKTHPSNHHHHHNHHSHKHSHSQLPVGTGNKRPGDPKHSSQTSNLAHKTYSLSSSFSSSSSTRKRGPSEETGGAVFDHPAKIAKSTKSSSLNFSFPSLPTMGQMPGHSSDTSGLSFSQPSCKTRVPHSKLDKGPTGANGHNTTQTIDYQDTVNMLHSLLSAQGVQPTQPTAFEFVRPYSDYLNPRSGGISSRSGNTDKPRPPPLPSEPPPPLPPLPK
Sequence of CDK5/p25 (Q00535 whole entry, species assumed): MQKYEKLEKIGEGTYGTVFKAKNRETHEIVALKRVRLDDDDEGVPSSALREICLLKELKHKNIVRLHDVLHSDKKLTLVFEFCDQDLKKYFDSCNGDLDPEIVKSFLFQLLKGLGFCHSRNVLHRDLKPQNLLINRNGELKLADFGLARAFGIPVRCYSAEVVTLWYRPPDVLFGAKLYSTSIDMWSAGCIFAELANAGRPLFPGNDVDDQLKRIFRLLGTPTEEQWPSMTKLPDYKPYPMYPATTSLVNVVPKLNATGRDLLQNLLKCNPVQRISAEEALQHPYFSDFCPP
Sequence of CDK5/p25 (Q15078 99-307 partner limits assumed, species assumed): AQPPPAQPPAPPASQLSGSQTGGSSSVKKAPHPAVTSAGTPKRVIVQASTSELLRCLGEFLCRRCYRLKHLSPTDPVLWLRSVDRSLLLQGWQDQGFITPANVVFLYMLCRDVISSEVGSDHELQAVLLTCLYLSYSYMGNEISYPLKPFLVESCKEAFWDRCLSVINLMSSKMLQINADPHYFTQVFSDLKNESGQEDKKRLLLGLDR

IC50 (CDK1/cyclin B)	IC50 (CDK2/cyclin A)	IC50 (GSK-3α/β)	IC50 (CDK9/cyclin T)	IC50 (DYRK1A)	IC50 (CDK5/p25)	IC50 (CK1δ/ε)	IC50 [1]	IC50 ([1]; Homo sapiens)	Compound	IC50 [2]
23 nM	16 nM	3500 nM	30 nM	500 nM	31 nM	210 nM	80 nM	–	CC[C@@H](CO)Nc1nc(NCc2ccc(-c3ccccn3)cc2)n2ncc(C(C)C)c2n1 [Compound 5, Fumarate salt of (S)-2-(1-hydroxybut-2-ylamino)-8-isopropyl-4-[4-(pyridin-2-yl)benzylamino]pyrazolo[1,5-a]-1,3,5-triazine]	–
31 nM	20 nM	2300 nM	49 nM	300 nM	21 nM	180 nM	–	–	CC(C)c1cnn2c(NCc3ccc(-c4ccccn4)cc3)nc(N[C@H](CO)[C@@H](C)O)nc12 [Compound 13, Fumarate salt of (2R,3R)-2-(1,3-dihydroxybut-2-ylamino)-8-isopropyl-4-[4-(pyridin-2-yl)benzylamino]pyrazolo[1,5-a]-1,3,5-triazine]	–
42 nM	31 nM	2200 nM	60 nM	530 nM	45 nM	120 nM	–	–	CC(C)c1cnn2c(NCc3ccc(-c4ccccn4)cc3)nc(N[C@@H](CO)[C@H](C)O)nc12 [Compound 15, Fumarate salt of (2S,3S)-2-(1,3-dihydroxybut-2-ylamino)-8-isopropyl-4-[4-(pyridin-2-yl)benzylamino]pyrazolo[1,5-a]-1,3,5-triazine]	–
70 nM	62 nM	4400 nM	68 nM	920 nM	53 nM	92 nM	–	–	CC(C)c1cnn2c(NCc3ccc(-c4ccccn4)cc3)nc(NC(CO)CO)nc12 [Compound 17, 2-(1,3-dihydroxyprop-2-ylamino)-8-isopropyl-4-[4-(pyridin-2-yl)benzylamino]pyrazolo[1,5-a]-1,3,5-triazine]	–
51 nM	49 nM	2800 nM	61 nM	610 nM	64 nM	120 nM	–	–	CC(C)c1cnn2c(NCc3ccc(-c4ccccn4)cc3)nc(NC(CO)CO)nc12 [Compound 18, Fumarate salt of 2-(1,3-dihydroxyprop-2-ylamino)-8-isopropyl-4-[4-(pyridin-2-yl)benzylamino]pyrazolo[1,5-a]-1,3,5-triazine]	–
–	–	7000 nM	–	580 nM	120 nM	410 nM	–	–	CC(C)c1cnn2c(NCc3ccc(-c4ccccn4)cc3)nc(N[C@H](CO)C(C)C)nc12 [Compound 28, (S)-2-(1-hydroxy-3-methylbut-2-ylamino)-8-isopropyl-4-[4-(pyridin-2-yl)benzylamino]pyrazolo[1,5-a]-1,3,5-triazine]	–
–	–	1000 nM	–	710 nM	25 nM	360 nM	–	< 30 nM	CCc1cnn2c(NCc3ccc(-c4ccccn4)cc3)nc(NC[C@@H](O)CO)nc12 [Compound 31, (R)-2-(1,2-dihydroxypropan-3-ylamino)-8-ethyl-4-[4-(pyridin-2-yl)benzylamino]pyrazolo[1,5-a]-1,3,5-triazine]	–
–	–	1400 nM	–	820 nM	34 nM	930 nM	–	50 nM	CCc1cnn2c(NCc3ccc(-c4ccccn4)cc3)nc(N[C@@H](CC)CO)nc12 [Compound 35, (S)-8-ethyl-2-(1-hydroxybut-2-ylamino)-4-[4-(pyridin-2-yl)benzylamino]pyrazolo[1,5-a]-1,3,5-triazine]	–
–	–	1600 nM	–	1600 nM	22 nM	580 nM	–	26 nM	CCc1cnn2c(NCc3ccc(-c4ccccn4)cc3)nc(N[C@H](CC)CO)nc12 [Compound 36, (R)-8-ethyl-2-(1-hydroxybut-2-ylamino)-4-[4-(pyridin-2-yl)benzylamino]pyrazolo[1,5-a]-1,3,5-triazine]	–

Continued, molecule first:

Compound	IC50 (CDK1/cyclin B)	IC50 (CDK2/cyclin A)	IC50 (GSK-3α/β)	IC50 (CDK9/cyclin T)	IC50 (DYRK1A)	IC50 (CDK5/p25)	IC50 (CK1δ/ε)	IC50 [1]	IC50 ([1]; Homo sapiens)	IC50 [2]
CC(C)c1cnn2c(NCc3ccc(-c4ccccn4)cc3)nc(N[C@H](CO)[C@@H](C)O)nc12 (stereo in doubt) [Compound 12, (2R,3R)-2-(1,3-dihydroxybut-2-ylamino)-8-isopropyl-4-[4-(pyridin-2-yl)benzylamino]pyrazolo[1,5-a]-1,3,5-triazine]	29 nM	22 nM	3000 nM	60 nM	470 nM	29 nM	200 nM	–	–	–
CC(C)c1cnn2c(NCc3ccc(-c4ccccn4)cc3)nc(N[C@@H](CO)[C@H](C)O)nc12 (stereo in doubt) [Compound 14, (2S,3S)-2-(1,3-dihydroxybut-2-ylamino)-8-isopropyl-4-[4-(pyridin-2-yl)benzylamino]pyrazolo[1,5-a]-1,3,5-triazine]	42 nM	42 nM	2500 nM	53 nM	580 nM	44 nM	120 nM	–	–	–
CC(C)c1cnn2c(NCc3ccc(-c4ccsc4)cc3)nc(N[C@H](CO)[C@@H](C)O)nc12 (stereo in doubt) [Compound 16, (2R,3R)-2-(1,3-dihydroxybut-2-ylamino)-8-isopropyl-4-[4-(thiophen-3-yl)benzylamino]pyrazolo[1,5-a]-1,3,5-triazine]	59 nM	34 nM	4200 nM	91 nM	1800 nM	50 nM	190 nM	–	–	–
CC(C)c1cnn2c(NCc3ccc(-c4ccccn4)cc3)nc(NC[C@H](O)CO)nc12 [Compound 9, Fumarate salt of (S)-2-(1,2-dihydroxypropan-3-ylamino)-8-isopropyl-4-[4-(pyridin-2-yl)benzylamino]pyrazolo[1,5-a]-1,3,5-triazine]	19 nM	12 nM	1800 nM	38 nM	260 nM	14 nM	61 nM	–	–	–
CC(C)c1cnn2c(NCc3ccc(-c4ccccc4)nc3)nc(N[C@@H](CO)[C@H](C)O)nc12 [Compound 21]	–	–	1200 nM	–	1200 nM	43 nM	110 nM	–	–	–
CC(C)c1cnn2c(NCc3ccc(-c4ccccc4)nc3)nc(N[C@H](CO)[C@@H](C)O)nc12 [Compound 23]	–	–	1200 nM	–	1300 nM	< 30 nM	130 nM	–	–	–
CC(C)c1cnn2c(NCc3ccc(-c4ccccn4)cc3)nc(N3CCN(CCO)CC3)nc12 [Compound 30, 2-[4-[8-isopropyl-4-[[4-(pyridin-2-yl)phenyl]methylamino]pyrazolo[1,5-a]-1,3,5-triazin-2-yl]piperazin-1-yl]ethanol]	–	–	2100 nM	–	1400 nM	380 nM	560 nM	–	1400 nM	–
CC[C@H](CO)Nc1nc(NCc2ccccc2)n2ncc(C(C)C)c2n1 [N-&-N1, reference compound]	90 nM	–	11000 nM	–	1300 nM	–	1200 nM	–	2600 nM	1420 nM
